# Assay results from patent US9732060B2, “Aminotriazine derivative and pharmaceutical composition comprising the same” (Shionogi & Co., Ltd., priority 2013, dated 2017).
# How the values were obtained:
# [1] = target: Rat P2X3 receptor (Rattus norvegicus (Rat), UniProt P49654); assay: Evaluation of rat P2X3 receptor inhibitory activity in the presence of rat serum albumin (RSA); format: cell-based; details: read-out: ratP2X3 + RSA IC50
# Experimental: Rat P2X3 receptor gene (GenBank accession number NM_031075) was expressed in C6BU-1 cell. The C6BU-1 cells were seeded in a 96-well micro titer plate at a concentration of 2500 cells/well and cultured in the medium (7.0% fetal bovine serum, 7.0% horse serum, and 1% antibiotic and antifungal in DMEM) for one day at 37° C. under 5% carbon dioxide atmosphere. The plasmid was transfected into the cells using transfection reagent FuGENE6 (Promega). The transfected cells were cultured in the medium for one day at 37° C. under 5% carbon dioxide atmosphere. The medium was replaced with 4 μM Fluo-4-AM solution (pH 7.5) containing 20 mM HEPES, 137 mM NaCl, 5.27 mM KCl, 0.9 mM MgCl2, 1.26 mM CaCl2, 5.6 mM D-glucose, 2.5 mM probenecid, 10% RSA, and 0.08% Pluronic F-127, and incubated at 37° C. under 5% dioxide carbon atmosphere for one hour. The plate was washed with washing buffer (20 mM HEPES, 137 mM NaCl, 5.27 mM KCl, 0.9 mM MgCl2, 1.26 mM CaCl2, 5.6 mM D-glucose, 2.5 mM probenecid, pH 7.5), and each well was added with 40 μL of this buffer. The plate was placed in High-Throughput Screening System FDSS 3000 (Hamamatsu Photonics K.K.). Measurement of fluorescence intensity by FDSS 3000 was started, and 40 μL of DMSO solutions containing 1% RSA (final concentrations) and different concentrations of the test compound as prepared by dilution with dilution buffer (20 mM HEPES, 137 mM NaCl, 5.27 mM KCl, 0.9 mM MgCl2, 1.26 mM CaCl2, 5.6 mM D-glucose, 2.5 mM probenecid, 0.1% Pluronic F-127, pH 7.5) were dispensed to each well through the built-in automatic dispenser. Five minutes after, 50 nM ATP solution (50 μL) prepared by dilution with the dilution buffer was dispensed through the built-in automatic dispenser, and the measurement of fluorescence intensity was continued for 4 min. For each well, the specific maximum fluorescence intensity was calculated as the ratio of the maximum fluorescence intensity after addition of the ATP solution to the fluorescence intensity at the starting of the measurement. […] FDSS software (Hamamatsu Photonics K.K.) was used for calculation of the specific maximum fluorescence intensity. IC50 was calculated using Microsoft Excel (Microsoft Corporation) and XLfit (idbs Ltd.).
# [2] = Protein binding test (equilibrium dialysis, unbound fraction in serum); format: in vitro ADME; details: 37° C.
# Experimental: The unbound fraction of the present compound in serum was measured using serum of various species.
# The reactive conditions are as follows: Evaluation method, Equilibrium dialysis; Reaction time, 24 hours; Reaction temperature, 37° C.; Concentration of the present compound, 2 μg/mL
# The test solution was added to each serum and the mixture was agitated to prepare the serum samples at the concentration mentioned above. Each serum sample was added into one side of the cell and phosphate buffered saline (PBS) was added into the other side to perform equilibrium dialysis at 37° C. for 24 hours. Then, the concentration of the compounds in the samples that were obtained from both sides was measured by LC/MS/MS.
# The ratio of PBS concentration to serum concentration is expressed as unbound fraction (fu),
# Sequence of Rat P2X3 receptor (P49654 whole entry): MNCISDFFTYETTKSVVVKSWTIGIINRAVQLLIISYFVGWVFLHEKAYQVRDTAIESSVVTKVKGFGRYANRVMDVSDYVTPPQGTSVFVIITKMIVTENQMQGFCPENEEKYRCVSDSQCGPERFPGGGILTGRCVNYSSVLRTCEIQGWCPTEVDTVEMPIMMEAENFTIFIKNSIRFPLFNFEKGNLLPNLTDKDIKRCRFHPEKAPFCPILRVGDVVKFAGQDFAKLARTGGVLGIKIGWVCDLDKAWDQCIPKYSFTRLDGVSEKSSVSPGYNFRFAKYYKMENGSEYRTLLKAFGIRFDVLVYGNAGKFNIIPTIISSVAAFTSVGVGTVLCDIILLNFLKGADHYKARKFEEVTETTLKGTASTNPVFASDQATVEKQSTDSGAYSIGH
smiles,measurement,setting,value
Cc1ccc(Cn2c(=O)n(C[C@H](C)C(=O)O)c(=O)[nH]/c2=N\c2ccc(Oc3ccc(F)cn3)cc2)cc1 [Compound I-040],IC50,[1],9 nM
same,"fraction unbound at 24 h, 2 μg/mL",[2],0.035
